Measured values: PubChem BioAssay (NCI)
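Five compound concentrations were applied to cells in 96-well plates for 48 hours; endpoints were derived by simple linear interpolation of the resulting dose-response curve. GI50 is the concentration that inhibits growth by half. TGI denotes the concentration required for complete inhibition of growth.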

Tests used:
Assay in all cases: DTP human tumour cell line panel, 48 h
[1] = system: HOP-62 NSCLC
[2] = system: TK-10 renal
[3] = system: SF-268 CNS
[4] = system: HCC-2998 colon
[5] = system: HCT-116 colon
[6] = system: A498 renal
[7] = system: MCF7 breast
[8] = system: MDA-MB-231 breast
[9] = system: IGROV1 ovarian
[10] = system: NCI-H226 lung

In the case of `Cc1ccc(C2=CC(=O)OC(C[P+](c3ccccc3)(c3ccccc3)c3ccccc3)(c3ccccc3)O2)cc1` (stereo not given), the TGI [1] is reported as 34.9 µM, the TGI [2] is reported as 35.6 µM and the TGI [3] is reported as 38.2 µM. It also gave a TGI [4] of 38.2 µM, a TGI [5] of 29.2 µM and a TGI [6] of 29.1 µM. The TGI [7] was 56.6 µM, the TGI [8] was 82.3 µM and the TGI [9] was 27.4 µM. It also gave a TGI [10] of 60.4 µM.
`C=C1C(=O)CC2C1CC(=O)/C(C)=C/CCC(C)(O)C2O` (stereo not given) was tested, and the TGI [1] was 43.7 µM, the TGI [2] was 8.51 µM and the TGI [3] was 35.6 µM. For the same molecule, the TGI [4] was 17.1 µM, the TGI [5] was 6.92 µM and the TGI [6] was 48.4 µM. The TGI [7] was 8.38 µM, the TGI [8] was 25.2 µM and the TGI [9] was 20.4 µM. For the same molecule, the TGI [10] was 61.6 µM.
Molecule `COc1ccc(C2c3cn[nH]c3CC3CCCCC32)cc1` (stereo not given) has a TGI [1] of 36.8 µM, a TGI [2] of 37.1 µM and a TGI [3] of 39.6 µM. It also gave a TGI [4] of 35 µM, a TGI [5] of 31.7 µM and a TGI [6] of 23 µM. The TGI [7] was 32.8 µM, the TGI [8] was 30.4 µM and the TGI [9] was 26.6 µM. For the same molecule, the TGI [10] was 36.9 µM.
Work on `COc1ccc(N2C(=O)CC(=O)N(NC(=O)C(C)Oc3ccccc3C)C2=S)cc1` (stereo not given) yielded a TGI [1] greater than 100 µM, a TGI [2] greater than 100 µM and a TGI [3] greater than 100 µM. The TGI [4] was greater than 100 µM, the TGI [5] was greater than 100 µM and the TGI [6] was greater than 100 µM. It also gave a TGI [7] greater than 100 µM, a TGI [8] greater than 100 µM and a TGI [9] greater than 100 µM. The TGI [10] was greater than 100 µM.
`C/C(C[n+]1ccccc1)=N\N=C(N)N` was tested, and the TGI [1] was greater than 100 µM, the TGI [2] was greater than 100 µM and the TGI [3] was greater than 100 µM. It also gave a TGI [4] greater than 100 µM, a TGI [5] greater than 100 µM and a TGI [6] greater than 100 µM. For the same molecule, the TGI [7] was greater than 100 µM, the TGI [8] was greater than 100 µM and the TGI [9] was greater than 100 µM. The TGI [10] was greater than 100 µM.
Molecule `C[C@H](CCC(=O)O)[C@H]1CC[C@H]2[C@@H]3C(=O)C[C@@H]4C[C@H](O)CC[C@]4(C)[C@H]3C[C@H](O)[C@]12C` has a TGI [1] greater than 100 µM, a TGI [2] greater than 100 µM and a TGI [3] greater than 100 µM. It also gave a TGI [4] greater than 100 µM, a TGI [5] greater than 100 µM and a TGI [6] greater than 100 µM. For the same molecule, the TGI [7] was greater than 100 µM, the TGI [8] was greater than 100 µM and the TGI [9] was greater than 100 µM. It also gave a TGI [10] greater than 100 µM.
In the case of `Cc1nc(C)c(C(=O)NNC(=O)C[N+](C)(C)C)cc1C(=O)NNC(=O)C[N+](C)(C)C`, the TGI [1] is reported as greater than 100 µM, the TGI [2] is reported as greater than 100 µM and the TGI [3] is reported as greater than 100 µM. The TGI [4] was greater than 100 µM, the TGI [5] was greater than 100 µM and the TGI [6] was greater than 100 µM. It also gave a TGI [7] greater than 100 µM, a TGI [8] greater than 100 µM and a TGI [9] greater than 100 µM. For the same molecule, the TGI [10] was greater than 100 µM.
`COc1ccc(C2OC(c3ccncc3)=NN2C)cc1F` (stereo not given) was tested, and the TGI [1] was greater than 100 µM, the TGI [2] was greater than 100 µM and the TGI [3] was greater than 100 µM. For the same molecule, the TGI [4] was greater than 100 µM, the TGI [5] was greater than 100 µM and the TGI [6] was greater than 100 µM. For the same molecule, the TGI [7] was greater than 100 µM, the TGI [8] was greater than 100 µM and the TGI [9] was greater than 100 µM. The TGI [10] was greater than 100 µM.
In the case of `N[C@@H](Cc1ccccc1)C(=O)N1CCC[C@@H]1P(=O)(Oc1ccccc1)Oc1ccccc1`, the TGI [1] is reported as greater than 100 µM, the TGI [2] is reported as greater than 100 µM and the TGI [3] is reported as greater than 100 µM. The TGI [4] was greater than 100 µM, the TGI [5] was greater than 100 µM and the TGI [6] was greater than 100 µM. It also gave a TGI [7] greater than 100 µM, a TGI [8] greater than 100 µM and a TGI [9] greater than 100 µM. It also gave a TGI [10] greater than 100 µM.
Work on `C[n+]1c(/C=C/c2c(O)ccc3ccccc23)ccc2ccccc21` yielded a GI50 [1] of 6.25 µM, a TGI [1] of 13.8 µM and a GI50 [2] of 5.49 µM. The TGI [2] was 11.7 µM, the GI50 [3] was 7.19 µM and the TGI [3] was 16.7 µM. It also gave a GI50 [4] of 6.63 µM, a TGI [4] of 13.4 µM and a GI50 [5] of 3.06 µM. For the same molecule, the TGI [5] was 10.3 µM, the GI50 [6] was 2.34 µM and the TGI [6] was 9.43 µM. The GI50 [7] was 1.12 µM, the TGI [7] was 7.89 µM and the GI50 [8] was 5.27 µM. For the same molecule, the TGI [8] was 12.2 µM, the GI50 [9] was 4.6 µM and the TGI [9] was 12.7 µM. The GI50 [10] was 5.65 µM and the TGI [10] was 13.2 µM.
`CC(C)(C)[Si](C)(C)OCC1OC(n2ccc(=O)[nH]c2=O)C(O[Si](C)(C)C(C)(C)C)/C1=C/C#N` (stereo not given) gave a TGI [1] greater than 100 µM, a TGI [2] greater than 44 µM and a TGI [3] greater than 100 µM. For the same molecule, the TGI [4] was greater than 100 µM, the TGI [5] was greater than 53.2 µM and the TGI [6] was 76.6 µM. It also gave a TGI [7] greater than 61.9 µM, a TGI [8] greater than 83.5 µM and a TGI [9] greater than 100 µM. It also gave a TGI [10] greater than 75.8 µM.
In the case of `CC1=CCC([C@@](C)(O)CCCC(C)(C)N=C=S)CC1` (stereo not given in full), the TGI [1] is reported as 40 µM, the TGI [2] is reported as 37.8 µM and the TGI [3] is reported as 31.6 µM. For the same molecule, the TGI [4] was 32.4 µM, the TGI [5] was 26.6 µM and the TGI [6] was 28.7 µM. The TGI [7] was 34.6 µM, the TGI [8] was 36.7 µM and the TGI [9] was 40.3 µM. For the same molecule, the TGI [10] was 32.1 µM.
`O=C1NC2c3c(I)sc(I)c3C(O)C2O1` (stereo not given) showed a TGI [1] greater than 100 µM, a TGI [2] greater than 100 µM and a TGI [3] greater than 100 µM. For the same molecule, the TGI [4] was greater than 100 µM, the TGI [5] was greater than 100 µM and the TGI [6] was greater than 100 µM. The TGI [7] was greater than 100 µM, the TGI [8] was greater than 100 µM and the TGI [9] was greater than 100 µM. It also gave a TGI [10] greater than 100 µM.
With `CCOC(=O)c1cccc(N=Nc2nc[nH]c2/C=C/C(=O)OC)c1` the TGI [1] was greater than 100 µM, the TGI [2] was greater than 100 µM and the TGI [3] was greater than 100 µM. For the same molecule, the TGI [4] was 28.2 µM, the TGI [5] was greater than 100 µM and the TGI [6] was 66.8 µM. The TGI [7] was greater than 100 µM, the TGI [8] was greater than 100 µM and the TGI [9] was greater than 100 µM. It also gave a TGI [10] greater than 100 µM.
`O=[N+]([O-])C(=C(Nc1ccccc1)Nc1ccccc1)C(Cl)=C(Cl)Cl` showed a TGI [1] of 44.7 µM, a TGI [2] of 38 µM and a TGI [3] of 40 µM. It also gave a TGI [4] of 37.9 µM, a TGI [5] of 25.5 µM and a TGI [6] of 26.2 µM. For the same molecule, the TGI [7] was 34.4 µM, the TGI [8] was 33.3 µM and the TGI [9] was 27.2 µM. The TGI [10] was 40.4 µM.
With `CC1(C)[C@@H]2CC[C@@]1(C)CN(CCC[N+](C)(C)C)C2` the TGI [1] was greater than 100 µM, the TGI [2] was greater than 100 µM and the TGI [3] was greater than 100 µM. It also gave a TGI [4] greater than 100 µM, a TGI [5] greater than 100 µM and a TGI [6] greater than 100 µM. It also gave a TGI [7] greater than 100 µM, a TGI [8] greater than 100 µM and a TGI [9] greater than 100 µM. For the same molecule, the TGI [10] was greater than 100 µM.
